Test systems include NCI-H522 lung; NCI/ADR-RES ovarian; SNB-19 CNS; IGROV1 ovarian; MDA-MB-231 breast; OVCAR-4 ovarian; MCF7 breast; RXF 393 renal; 786-0 renal; HCC-2998 colon.
Common to all, as to experiment: growth of human tumour cells (NCI), 48 h

The structures appear in SMILES notation.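 96-well plates; 48 h exposure; 5 concentrations. Endpoints by linear interpolation between flanking doses. Not reached: highest tested concentration assigned. Here, GI50 denotes the concentration required for 50% inhibition of growth. TGI: concentration producing complete growth inhibition.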

Consider `COc1ccc2c(c1)CCC1C2CC[C@@]2(C)C1CC[C@@H]2NC(=O)Cc1ccc(O)c(O)c1` (stereo not given in full), for which the GI50 in the test on NCI-H522 lung was 1.9 µM; in the test on NCI/ADR-RES ovarian it was 10.7 µM; with SNB-19 CNS it was 13.3 µM; in the test on IGROV1 ovarian it was 2.29 µM; in the test with MDA-MB-231 breast, 4.05 µM; in the test with OVCAR-4 ovarian it was 4.26 µM. The GI50 in the test on MCF7 breast is 11.2 µM; in the test with RXF 393 renal, 10.7 µM; in the test on 786-0 renal, 5 µM; in the test on HCC-2998 colon it was 13.4 µM. Moreover, the TGI in the test on NCI-H522 lung amounted to 4.25 µM; with NCI/ADR-RES ovarian, 33.6 µM; in the test with SNB-19 CNS it was 33.4 µM; in the test with IGROV1 ovarian it was 7.68 µM; in the test with MDA-MB-231 breast, 16.9 µM; with OVCAR-4 ovarian it was 18.6 µM. Further, the TGI in the test with MCF7 breast amounted to 32.1 µM; in the test with RXF 393 renal it was 27.3 µM; in the test on 786-0 renal it was 17.7 µM; in the test with HCC-2998 colon it was 28.2 µM.

Take `COc1cc2nc(N3CCCN(C)CC3)nc(NC3CCN(Cc4ccccc4)CC3)c2cc1OC`: the GI50 was 2.02 µM in the test with NCI-H522 lung; 13.4 µM with NCI/ADR-RES ovarian; 4.28 µM with SNB-19 CNS; 7.33 µM in the test with IGROV1 ovarian; 1.68 µM with MDA-MB-231 breast; 1.81 µM in the test with OVCAR-4 ovarian. The GI50 is 2.08 µM in the test on MCF7 breast, 1.33 µM in the test with RXF 393 renal, 1.84 µM with 786-0 renal and 2.71 µM with HCC-2998 colon. The TGI came out at 4.22 µM in the test with NCI-H522 lung; 34.8 µM in the test on NCI/ADR-RES ovarian; 18.1 µM in the test with SNB-19 CNS; 25.3 µM with IGROV1 ovarian; 4.75 µM in the test with MDA-MB-231 breast; 4.79 µM in the test on OVCAR-4 ovarian. In addition, the TGI in the test with MCF7 breast is 7.65 µM; in the test with RXF 393 renal, 3.12 µM; in the test on 786-0 renal, 5.2 µM; in the test on HCC-2998 colon, 8.76 µM.

In the case of `Cc1ccc(S(=O)(=O)ON2C(=O)c3cccc4cc([N+](=O)[O-])cc(c34)C2=O)cc1`, the TGI in the test on NCI-H522 lung, in the test with NCI/ADR-RES ovarian, in the test on SNB-19 CNS, in the test with IGROV1 ovarian, in the test with MDA-MB-231 breast and in the test on OVCAR-4 ovarian was above 100 µM throughout. Moreover, the TGI in the test with MCF7 breast is above 100 µM; in the test on RXF 393 renal, above 100 µM; in the test with 786-0 renal, above 100 µM; in the test on HCC-2998 colon it was 58.9 µM.

For the compound `Fc1cccc(COc2ccc(Nc3ncnc4onc(-c5ccccc5)c34)cc2)c1`, the GI50 in the test with NCI-H522 lung is 0.138 µM; in the test with NCI/ADR-RES ovarian it was 3.02 µM; in the test with SNB-19 CNS it was 0.339 µM; in the test with IGROV1 ovarian it was 0.249 µM; with MDA-MB-231 breast it was 0.402 µM; in the test with OVCAR-4 ovarian it was 0.988 µM. For the same compound, the GI50 is 0.0393 µM in the test on MCF7 breast, 0.219 µM in the test on RXF 393 renal, 0.691 µM with 786-0 renal and 0.287 µM in the test on HCC-2998 colon. Moreover, the TGI with NCI-H522 lung is 0.905 µM; with NCI/ADR-RES ovarian, 15.7 µM; in the test with SNB-19 CNS, above 100 µM; with IGROV1 ovarian, above 100 µM; in the test with MDA-MB-231 breast it was 14.8 µM; with OVCAR-4 ovarian it was above 100 µM. Besides, the TGI with MCF7 breast is above 100 µM; in the test with RXF 393 renal it was 1.35 µM; in the test on 786-0 renal it was 21.2 µM; in the test on HCC-2998 colon, 16.8 µM.

As for `CC1(C)N=C(N)N=C(N)N1c1ccc(CNC(=O)Nc2ccc(S(=O)(=O)F)c(Cl)c2)c(Cl)c1`, the GI50 was 0.624 µM with NCI-H522 lung; above 90.8 µM in the test with NCI/ADR-RES ovarian; 3.64 µM with SNB-19 CNS; 0.0805 µM in the test on IGROV1 ovarian; 15.6 µM in the test with MDA-MB-231 breast; 4.57 µM in the test on OVCAR-4 ovarian. Further, the GI50 in the test with MCF7 breast is 0.536 µM; in the test with RXF 393 renal, 0.525 µM; with 786-0 renal, 0.872 µM; with HCC-2998 colon, 1.11 µM. Besides, the TGI with NCI-H522 lung is 40.2 µM; in the test on NCI/ADR-RES ovarian it was above 100 µM; in the test with SNB-19 CNS it was above 100 µM; with IGROV1 ovarian, above 100 µM; in the test with MDA-MB-231 breast it was above 100 µM; in the test with OVCAR-4 ovarian it was above 100 µM. Moreover, the TGI in the test with MCF7 breast, with RXF 393 renal, with 786-0 renal and with HCC-2998 colon was above 100 µM in each case.

Consider `Cc1cc(OCc2nnc3n2S(=O)(=O)c2ccccc2N3C)ccc1Cl`, for which the TGI was 45.6 µM in the test on NCI-H522 lung; above 100 µM in the test with NCI/ADR-RES ovarian; 39.1 µM in the test on SNB-19 CNS; above 100 µM with IGROV1 ovarian; 41.7 µM in the test with MDA-MB-231 breast; 24.2 µM in the test on OVCAR-4 ovarian. Moreover, the TGI was above 100 µM with MCF7 breast, 60.1 µM in the test on RXF 393 renal, 32.7 µM in the test with 786-0 renal and above 100 µM with HCC-2998 colon.

As to `COc1cc(CCC[P+](c2ccccc2)(c2ccccc2)c2ccccc2)c(OC)c2c1OCO2`, the GI50 in the test with NCI-H522 lung was 1.43 µM; in the test on NCI/ADR-RES ovarian, 77.5 µM; with SNB-19 CNS, 1.17 µM; in the test on IGROV1 ovarian, 1 µM; with MDA-MB-231 breast it was 2.11 µM; in the test with OVCAR-4 ovarian, 1.08 µM. The GI50 in the test on MCF7 breast was 1.82 µM; in the test with RXF 393 renal it was 2.01 µM; in the test with 786-0 renal, 3.44 µM; with HCC-2998 colon it was 2.21 µM. In addition, the TGI with NCI-H522 lung is 12.1 µM; with NCI/ADR-RES ovarian, above 100 µM; in the test on SNB-19 CNS, 10.9 µM; with IGROV1 ovarian it was 11.7 µM; in the test with MDA-MB-231 breast, 10.3 µM; in the test on OVCAR-4 ovarian, 16.1 µM. Further, the TGI in the test with MCF7 breast came to 12.9 µM; in the test on RXF 393 renal, 8.43 µM; with 786-0 renal, 16.5 µM; in the test with HCC-2998 colon it was 13.3 µM.

For the compound `NC(=S)N/N=C/c1ccc(OC(=O)COc2cc(Cl)c(Cl)cc2Cl)cn1`, the GI50 with NCI-H522 lung was 3.17 µM; in the test with NCI/ADR-RES ovarian, 3.23 µM; with SNB-19 CNS it was 5.87 µM; in the test on IGROV1 ovarian it was 7.65 µM; with MDA-MB-231 breast, 4.53 µM; in the test with OVCAR-4 ovarian, 4.83 µM. The GI50 in the test on MCF7 breast was 2.09 µM; with RXF 393 renal, 3.16 µM; with 786-0 renal it was 3.54 µM; in the test on HCC-2998 colon it was 5.84 µM. Further, the TGI in the test on NCI-H522 lung is 67.5 µM; in the test with NCI/ADR-RES ovarian, above 100 µM; with SNB-19 CNS it was above 100 µM; in the test with IGROV1 ovarian it was above 100 µM; with MDA-MB-231 breast, above 100 µM; with OVCAR-4 ovarian it was above 100 µM. Besides, the TGI in the test with MCF7 breast is above 100 µM; with RXF 393 renal it was 21.4 µM; with 786-0 renal, above 100 µM; with HCC-2998 colon it was above 100 µM.
